From patent US20140037574A1, “PHARMACEUTICAL COMPOSITION” (priority 2010, published 2014)
pIC50: −log10 of the molar value.

Target: CYP3A4 (Homo sapiens, UniProt P08684)
Assay: in vitro
Details: for inhibition at 10 min: human, microsomes, pH 7.4
Procedure: G6PDH (40 U/mL) was prepared in 5 mM sodium citrate solution and stored at −20° C. until use. […] The preparation of NRS was completed right before use. It was made such that on addition to the HLM incubation mixture, it contained 2.6 mM NADP', 6.7 mM G6P, […] and 0.8 U/ml G6PDH.
Substrate (felodipine) solutions were prepared over a range of 0.01-100.0 mM in acetonitrile. […] This was kept on ice until use.
The reaction was halted by a stop solution made of cooled acetonitrile (−20° C.).
Supernatants were filtered through […] and analysed by the UPLC method developed in order to quantify the extent of felodipine metabolism. The rate of metabolism, determined as the rate of disappearance of substrate, was profiled against the substrate concentration to determine the enzyme kinetic parameters.
Felodipine at its determined Km was incubated in HLM as described above except for the addition of inhibitors. […] Supernatants were analysed using the developed UPLC method. […] Another control was incubated without inhibitors to allow for maximum metabolism. […] At higher concentrations, the effect of acetonitrile on enzymatic activity could be significant. It is therefore recommended that not >1% acetonitrile should be included in the incubation mixture. […] The final concentration of acetonitrile in the incubation mixture was 1%.
Their inhibitory effects were investigated on microsomal metabolism of felodipine. The potencies of the inhibitors were measured as their IC50 values determined through non-linear regression of the percentage inhibition of felodipine metabolism against inhibitor concentration. […] The concentration of felodipine in incubation mixtures containing the various inhibitors and the modelled pre-systemic enzymatic modulators was determined and the extent of metabolism was measured as percentage of control.

CYP3A4, sequence (P08684 whole entry): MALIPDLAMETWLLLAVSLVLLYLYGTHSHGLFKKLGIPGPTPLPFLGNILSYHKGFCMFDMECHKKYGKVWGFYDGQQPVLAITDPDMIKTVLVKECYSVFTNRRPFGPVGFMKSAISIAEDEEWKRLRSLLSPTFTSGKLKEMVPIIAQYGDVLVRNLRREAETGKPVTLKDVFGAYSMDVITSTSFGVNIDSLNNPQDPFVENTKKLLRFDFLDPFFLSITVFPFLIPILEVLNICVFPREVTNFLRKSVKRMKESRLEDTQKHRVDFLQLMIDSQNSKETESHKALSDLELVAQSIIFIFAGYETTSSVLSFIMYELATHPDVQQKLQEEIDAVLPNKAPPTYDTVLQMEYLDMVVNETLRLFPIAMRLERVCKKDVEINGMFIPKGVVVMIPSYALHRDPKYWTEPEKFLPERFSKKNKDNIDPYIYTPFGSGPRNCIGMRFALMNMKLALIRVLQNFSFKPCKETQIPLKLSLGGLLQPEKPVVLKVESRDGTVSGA

| inhibition at 10 min | pIC50 (IC50 (mg/mL), HLM, felodipine at its Km as substrate) | IC50 (IC50 (μM), HLM, felodipine at its Km as substrate, Table 1) | SMILES |
| --- | --- | --- | --- |
| 95% | – | – | O=C1C[C@@H](c2ccc(O)cc2)Oc2cc(O)cc(O)c21 [Naringenin, naringenin] |
| 98% | 3.75 | 178 µM | C[C@@H]1O[C@@H](O[C@H]2[C@H](Oc3cc(O)c4c(c3)O[C@H](c3ccc(O)cc3)CC4=O)O[C@H](CO)[C@@H](O)[C@@H]2O)[C@H](O)[C@H](O)[C@H]1O [Naringin, naringin] |
| 98% | – | – | O=c1c(O)c(-c2ccc(O)c(O)c2)oc2cc(O)cc(O)c12 [Quercetin, quercetin] |
